Measured values as given in US20240228542A1, “LYTIC DOMAIN FUSION CONSTRUCTS, CHECKPOINT INHIBITORS, AND METHODS OF MAKING AND USING SAME” (A28 Therapeutics Inc., priority 2020, published 2024).

What was measured:
CD8+ T cells = assay: T cell activation by condition media from EP-100-treated ID8 cells; assay type: cell-based, mouse; settings: cells treated with condition media (CM) from EP-100-treated cells; controls 12.3±1.1, p=0.04
[1] = system: murine ovarian cancer cells; assay: EP-100 cytotoxicity and LHRH-R specificity in murine ovarian cancer cells; assay type: cell-based; settings: ID8 cells, EP-100, 24 hr
Text: To identify the direct effects of EP-100 on cancer cells, murine ovarian cancer cell lines were used for in vitro experiments. […] The level of expression of LHRH-R in murine ovarian cancer cells using RT-PCR and Western blot analysis. […] Indeed, LHRH-R was expressed mainly on the membrane of cancer cells (FIGS. 14D and 14E). Human SKOV3ipl ovarian cancer cells and immortalized murine 3T3 fibroblasts were used as negative controls.
To determine whether the antitumor EP-100 efficacy was specific to LHRH-R expression, we silenced LHRH-R using siRNA (FIG. 15A). […].

MDA-MB-435S xenograft = assay: MDA-MB-435S xenograft, kinetics after a single injection; assay type: in vivo, Nu/Nu mice; settings: 0.2 and 2 mg/kg
Experimental: In brief, Nu/Nu female mice, outbred strain, age 5 weeks (Charles River), were injected (s.c.) into the interscapular region with a MDA-MB-435S (passage #249)/Matrigel suspension (2.4×10^6 cells/mouse) as described in Example 10. Phor 18-LHRH (338613) (ID: 338613 lot #P080401) (0.2, and 2 mg/kg) were reconstituted in USP saline prior to dosing. The doses were given as a single bolus intravenous injection via lateral tail vein.
Mice were sacrificed 1, 2 and 16 hours after treatment with Phor 18-LHRH (338613) or saline. At study endpoint body weight, tumor weights were determined, and tumors were fixed in phosphate buffered 10% formalin.

MCF-7 xenograft = assay: MCF-7 breast cancer xenograft; assay type: in vivo, nude mice; settings: MCF-7, 2 × 3 wk, 19 d
Experimental: In vivo efficacy studies were conducted as monotherapy, or a combination therapy with standard of care treatments in nude mice bearing human melanoma xenografts; MDA-MB-435S.luc (s.c.), human breast cancer xenografts MCF-7 (estrogen receptor alpha positive), human ovarian cancer xenografts; OVCAR-3, (s.c.), human prostate cancer xenografts; PC-3 (androgen receptor negative).
Mice were sacrificed one week after the last injection and blood collected for chemistry panel, tumor weights and body weights were recorded. Part of the tumors were fixed in PBS buffered 10% formalin for histological evaluation.

immune cells in ascites = assay: Immune cell profiling (FACS) of ID8 ascites; assay type: in vivo, C57BL/6 mice
Experimental: Immune Profiling Assay—Immunophenotypic analyses of splenocytes and single cell suspensions from tumors were assessed by flow cytometry. Abs to stain for MDSCs were CD11b-APC (clone M1/70; BD Biosciences), Ly6G-FITC (clone 1A8; BD Biosciences) and Ly6C-PE (clone AL-21; BD Biosciences). For T-cell activation markers, cells were stained with Ab specific for CD4-PE-Cy7 (clone RM4-5; BD Biosciences), CD8-PE-Cy7 (clone 53-6.7; BD Biosciences), CD62L-PE (clone MEL-14; BD Biosciences) and CD44-FITC (clone IM7; Biolegend). Cells were incubated on ice for 30 min, washed and fixed in phosphate buffered saline (PBS) containing 1% formalin for flow cytometric analysis on an LSRII flow cytometer (BD Biosciences).
Immune cell profiling was conducted on ascites (N=3) and tumor tissue (N=3) by processing the samples by the following method and analyzed through Fluorescent Activated Cell Sorting (FACS), see Table 8. Cells were incubated for 30 minutes on ice, washed and fixed in phosphate buffered saline containing 1% formalin for flow cytometric analysis on an LSRII flow cytometer.

MDA-MB-435 cells = assay: Fluorescence microscopy of MDA-MB-435 cells; assay type: cell-based, human; settings: 10 μM, 5 minutes exposure
Experimental: In brief, human melanoma cells (MDA-MB-435, passage #252) were seeded onto culture dishes. The following markers were introduced prior to adding EP-100; DRAQ5™(Alexis Corporation)—blue—was used for staining of the nucleus and Mito Tracker® Red CMXRos (M7512) (Molecular Probes, Inc. OR) were applied for visualizing intact mitochondria. Cell membranes were stained with wheat germ alexa fluor green conjugates (Molecular Probes, Inc. OR).
Cells were loaded first with Mitotracker dye, according to the manufacturer's recommendation. Phor 18-LHRH (338613) reconstituted in saline was added at a final concentration of 10 μM and incubated for 5-10 minutes. Culture dishes with saline only served as controls. The supernatant was removed, and the remaining cells prepared for fluorescence microscopy imaging.

[2] = system: ID8 murine ovarian carcinoma; assay: Orthotopic ID8 murine ovarian carcinoma syngeneic model; assay type: in vivo, C57BL/6 mice
Experimental: Ovarian Cancer Orthotopic Syngeneic Mouse model—Eight-to 12-week-old female C57BL/6 mice were purchased from Taconic Farms, ID8 or IG10 cells at a concentration off 2×10^6 cells/0.2 mL per mouse were injected into the intraperitoneal cavity of C57BL/6. All mouse studies were approved by the Institutional Animal Care and Use Committee and were cared for in accordance with guidelines set forth by the American Association for Accreditation of Laboratory Animals. After cancer cell injection, mice were randomly divided into four treatment groups: 1) untreated control, 2) PD-L1 antibody (200 μg/kg intraperitoneally twice a week), 3) EP-100 (0.2 mg/kg intravenously twice a week) and 4) PD-L1 antibody plus EP-100. Treatment was initiated ten days after cancer cell injection into the intraperitoneal cavity.
C57BL/6 female mice were injected orthotopically with luciferase labeled ID8 (ID8-L) murine ovarian cancer cell line (1×10^6 cells). Mice were monitored for tumor take using a luminescent imaging system. Treatments started on day 7 after tumor cell injection and continued on days 9, 12, 16, 19, 22, and 26 (FIG. 17A). […] Each treatment and control group consisted of 10 mice. At necropsy on day 28, ascites fluids were removed and measured, and tumors were removed and weighed.
Significance between treatment groups was assessed using Wilcoxon signed Rank test analysis and ANOVA.

Sequence: KFAKFAKKFAKFAKKFAKQHWSYGLRPG [Phor18-LHRH]
- proportion of CD8+ T cells (CD8+ T cells): 17.3±1.1
- viability of cells in which LHRH-R was silenced (siRNA) [1]: remained viable
- time to destruction of tumors after injection (MDA-MB-435S xenograft): 1 h
- Median Tumor Weight vs Saline P < 0.05 (dose, growth delay) (MCF-7 xenograft): 0.02 mg/kg
- increase of CD8+ T/Treg ratio (immune cells in ascites): 7 fold
- Monocytic myeloid suppressor cells (mMDSC) (immune cells in ascites; % of CD45+ cells, controls 0.62±0.08%): 0.21±0.01%
- CD8+ T cells (immune cells in ascites; % of CD45+ cells, controls 1.9±0.3%): 8.9±2.4%
- B cells (immune cells in ascites; % of CD45+ cells, controls 9.8±1.8%): 1.5±0.14%
- Natural killer (NK) cells (immune cells in ascites; % of CD45+ cells, controls 10.3±0.8%): 10.2±0.08%
- Dendritic cells (DC) (immune cells in ascites; % of CD45+ cells, controls 18.5±1.1%): 15.1±0.2%
- Macrophages (immune cells in ascites; % of CD45+ cells, controls 23.8±5.1%): 25.6±0.7%
- CD45+ cell fraction of life cells (immune cells in ascites; Mean±SEM, controls 10.5±1.8%): 15.6±2.1%
- ratio of CD8+ T cells to regulatory T cells (immune cells in ascites; controls 2.6±0.6): 17.32±4.1
- plasma membrane, fluorescence microscopy (MDA-MB-435 cells): disintegration of the plasma membrane
- reduction of ascites ([2]; ID8): 1.5 fold
- reduction of live tumor size ([2]; ID8): 2.1 fold
- reduction of tumor weights ([2]; ID8): 3 fold
- relative reduction of ascites volumes ([2]; ID8): 35.5%
- luminescence counts of tumor at the end of the study ([2]; ID8-luciferase, mean±SD, start 9.2±1.2×10^4): 88.6±21.5 ×10^4
- tumor weights at necropsy ([2]; ID8, Mean±SEM, N=10, controls 1.06±0.08 g): 0.49 ± 0.07 g
- ascites volumes ([2]; ID8, Mean±SEM, N=10, vehicle 12.26±0.6 ml): 8.0 ± 0.7 mL
